One assay has as its system HepG2. Kind of assay: Cytotoxicity against human HepG2 cells after 48 hrs by MTT assay. Type of assay: functional, cell-based. Particulars: HepG2, 48 h.
Another assay has as its system SGC-7901. Kind of assay: Cytotoxicity against human SGC7901 cells after 48 hrs by MTT assay. Type of assay: functional, cell-based. To be noted: SGC-7901, 48 h.

Bounds are passed on as bounds.

For the molecule `COc1ccc(-c2c3c(nc4ncnn24)-c2ccccc2C(=O)C3=O)cc1`, the results for the IC50 in the assay on HepG2 and in the assay on SGC-7901 were 1.71 µM and 1.31 µM, respectively.

On to `O=C1C(=O)c2c(nc3ncnn3c2-c2cccs2)-c2ccccc21`, for which the 50% inhibitory concentration (IC50) turned out to be 2.13 µM in the assay with HepG2 and 1.45 µM with SGC-7901.

On to `O=C1C(=O)c2c(nc3ncnn3c2-c2ccc([N+](=O)[O-])cc2)-c2ccccc21`, for which the figures for the IC50 in the assay with HepG2 and in the assay on SGC-7901 were 4.74 µM and 2.65 µM, respectively.

For `Cc1ccc(-c2c3c(nc4ncnn24)-c2ccccc2C(=O)C3=O)cc1`, the IC50 was determined as 1.19 µM in the assay on HepG2 and 1.71 µM in the assay on SGC-7901.

Turning to `Clc1ccc(-c2c3c(nc4ncnn24)c2ccccc2c2nc4ccccc4nc23)cc1`, the concentration for half-maximal inhibition (IC50) in the assay with HepG2 and with SGC-7901 was > 200 µM throughout.

For the molecule `O=C1C(=O)c2c(nc3ncnn3c2-c2ccccc2)-c2ccccc21`, the IC50 amounted to 3.45 µM in the assay on HepG2 and 2.16 µM in the assay on SGC-7901.

In the case of `O=C1C(=O)c2c(nc3ncnn3c2-c2ccc(Cl)cc2Cl)-c2ccccc21`, the IC50 with HepG2 was 2.99 µM; with SGC-7901 it was 1.83 µM.

In the case of `O=C1C(=O)c2c(nc3ncnn3c2-c2ccc(Cl)cc2)-c2ccccc21`, the values for the half-inhibitory concentration (IC50) in the assay on HepG2 and in the assay with SGC-7901 were 24.9 µM and 34.9 µM, respectively.

`O=C1C(=O)c2c(nc3ncnn3c2-c2ccc(F)cc2)-c2ccccc21`: the 50% inhibitory concentration (IC50) in the assay with HepG2 stood at 7.85 µM; in the assay with SGC-7901, 6.12 µM.

Regarding `O=C1C(=O)c2c(nc3ncnn3c2-c2cccc([N+](=O)[O-])c2)-c2ccccc21`, the half-inhibitory concentration (IC50) with HepG2 worked out at 15.3 µM; in the assay on SGC-7901, 9.88 µM.

For `COc1cc(-c2c3c(nc4ncnn24)-c2ccccc2C(=O)C3=O)cc(OC)c1OC`, the concentration for half-maximal inhibition (IC50) worked out at 17.9 µM in the assay on HepG2 and 59.2 µM with SGC-7901.

`COc1cccc2c1C(=O)c1c(O)c3c(c(O)c1C2=O)C[C@@](O)(C(=O)CO)C[C@@H]3O[C@H]1C[C@H](N)[C@H](O)[C@H](C)O1` [DOXORUBICIN]: the half-maximal inhibitory concentration (IC50) with HepG2 is 1.02 µM; in the assay with SGC-7901, 5.72 µM.

The values are drawn from ChEMBL document CHEMBL2413021, “Regioselective synthesis of 6-aryl-benzo[h][1,2,4]-triazolo[5,1-b]quinazoline-7,8-diones as potent antitumoral agents” (Bioorg Med Chem Lett, 2013).
